Literature values in patent US20080057122A1, “Acetaminophen pharmaceutical compositions” (priority 2006, published 2008).

For `CC(=O)Nc1ccc(O)cc1` [acetaminophen], the “time in which peak concentrations are reached” value (Darvocet-N 100 immediate release tablets) is given as no more than 2 h.

In the case of `CCC(=O)O[C@](Cc1ccccc1)(c1ccccc1)[C@H](C)CN(C)C` [propoxyphene], the early half-life (in vivo) is given as 6 to 12 h and the terminal half-life (in vivo) is given as “approximately 20 hours”.
